Measurements as given in patent US8362081B2, “Methods for treating hemorrhagic conditions” (priority 2009, dated 2013).

Experiments:
acute gastric bleeding = test: Gastrorrhagia of rats: acute gastric bleeding time and extent; format: in vivo, Sprague-Dawley rat; settings: rat gastric wound; 0.5 KU/kg via femoral vein 30 min before wounding; vs physiological saline control
Protocol: Healthy Sprague-Dawley rats having a weight of 180-220 g were distributed randomly into four groups consisting of 10 rats per group. The rats in each group were fed only water for the twelve-hour period prior to operation. Each rat was anaesthetized by receiving an injection of sodium pentobarbital (30 mg/kg) in the abdominal cavity. An incision was made in the upper abdominal cavity of each animal and the stomach exposed to air and minced along the greater curvature. The stomach was vacated for each animal and cleaned with sterile cotton swab.
The animals received by injection (1 ml/100 g) via a femoral vein one of following four compositions suspended in physiological saline: control, 0.5 KU/kg Reptilase, 25 mg/kg Sodium Dencichine, or 1 mg/kg solid dispersion composition of Dencichine prepared according to Example 1. Thirty minutes following the injection, one piece of the gastric body from each animal was excised using biopsy forceps to establish acute gastric bleeding. The bleeding time and extent was recorded for each rat until the wound stopped bleeding.

tail wound bleeding = test: Tail bleeding time of mouse; format: in vivo, ICR mouse; settings: mouse tail cut; 0.5 KU/kg via tail vein 30 min before cut; vs physiological saline control
Protocol: Healthy male ICR mice having a weight of 18-22 g were distributed randomly into […] consisting of 10 mice per group. The animals received by injection (0.1 ml/10 g) via the tail vein one of following four compositions suspended in physiological saline: control, 0.5 KU/kg Reptilase, 25 mg/kg Sodium Dencichine, or 1 mg/kg solid dispersion composition of Dencichine prepared according to Example 1. Thirty minutes following injection the tail of each mouse was cut 0.5 cm from the tail tip. The cut tail wound bleeding of each mouse was monitored by scrubbing the tail tip with a filter paper at timed intervals (30 s, 60 s, and every 10 s thereafter) until blood could not be seen on the filter paper.

liver wound bleeding = test: Rabbit liver hemorrhage: bleeding time and extent; format: in vivo; settings: 0.5 KU/kg injected via ear vein at wounding, vs physiological saline control
Protocol: Healthy rabbits having a weight of 2-2.5 kg were distributed randomly into four groups consisting of 6 rabbits per group. The rabbits in each group were fed only water for the twelve-hour period prior to operation. Each rabbit was anaesthetized by receiving an injection of sodium pentobarbital (30 mg/kg) in the abdominal cavity. An incision was made in the upper abdominal cavity of each animal and a piece of the liver was removed leaving a wound 2 cm in length, 1 cm in width and 0.5 cm in height.
At the time of wounding, the animals received by injection (2 ml/kg) via an ear vein one of following four compositions suspended in physiological saline: control, 0.5 KU/kg Reptilase, 25 mg/kg Sodium Dencichine, or 1 mg/kg solid dispersion composition of Dencichine prepared according to Example 1. Following the injection, the bleeding time and extent was recorded for each rabbit until the liver wound stopped bleeding.

Reptilase: Haemostatic comparator injected at 0.5 KU/kg
significantly shortened: time and extent of the wound bleeding (acute gastric bleeding) | time required to stop the tail wound bleeding (tail wound bleeding) | time and extent of the wound bleeding (liver wound bleeding)
